Measured values from paper PMC9646721, “Alkaloid binding to opium poppy major latex proteins triggers structural modification and functional aggregation” (Nature Communications, 2022).
Values joined by “and” are separate entries in the source; they are usually repeats but may differ in a detail not shown here. Equal entries are not always repeated.

Columns and labels:
NISO [1] = molecular target: T1, NISO (Papaver somniferum, UniProt P0DYP9); parameters: made in house; host or cells: E. coli ArcticExpress (DE3); settings: read-out: Km app (substrate kinetics); cited from earlier work
T1 sequence (P0DYP9 entry or part of it): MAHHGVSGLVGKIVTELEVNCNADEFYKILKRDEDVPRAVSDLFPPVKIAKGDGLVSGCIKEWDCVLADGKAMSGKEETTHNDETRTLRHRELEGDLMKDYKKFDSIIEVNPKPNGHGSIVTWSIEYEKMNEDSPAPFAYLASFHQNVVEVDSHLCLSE

THS = settings: cited from earlier work
NISO [2] = molecular target: T1, NISO; test: ANS fluorescence binding curve (direct ANS-protein affinity); parameters: made in house; host or cells: E. coli ArcticExpress (DE3); settings: Kd (ANS-protein, apparent), ANS 10 µM fixed, protein 0 to 100 µM; CBS pH 5.5; one-site hyperbolic model
Experimental: (§1) 8-anilino-1-naphthalenesulfonic acid (ANS) fluorescence binding curves and the binding-induced reduction in ANS fluorescence resulting from competition with tested ligands across a range of concentration facilitated the measurement of IC50 and an estimate of Kd values using the binding models and procedures described previously[70]. […] ANS was dissolved in dimethylsufoxide at a concentration of 20 mM, stored at −20 °C until dilution and protected from exposure to light. […] 40 µl of the ANS solution and 40 µl of each MLP/PR10 protein solution were combined to 80 µl final reaction volumes, which were incubated at 21 °C for 10 min to allow equilibration of binding. […] An identical reaction series whereby protein was omitted from the mixtures was measured under identical conditions and trace fluorescence was subtracted from each MLP/PR10 protein-containing sample. Each data set was scaled so that the maximum observed fluorescence corresponded to 100% and individual data points were plotted, and a rectangular hyperbolic ligand binding function was fit, using least-squares analysis (Prism 5 software, Graphpad, USA). Experiments were repeated at least twice with independently prepared protein.

PR10-12 = settings: read-out: Kd (ANS-protein, apparent); ANS 10 µM fixed, protein 0 to 100 µM; CBS pH 5.5; one-site hyperbolic model
Experimental: (§2) 8-anilino-1-naphthalenesulfonic acid (ANS) fluorescence binding curves and the binding-induced reduction in ANS fluorescence resulting from competition with tested ligands across a range of concentration facilitated the measurement of IC50 and an estimate of Kd values using the binding models and procedures described previously[70]. […] ANS was dissolved in dimethylsufoxide at a concentration of 20 mM, stored at −20 °C until dilution and protected from exposure to light. […] 40 µl of the ANS solution and 40 µl of each MLP/PR10 protein solution were combined to 80 µl final reaction volumes, which were incubated at 21 °C for 10 min to allow equilibration of binding. Triplicate 18-µl aliquots were withdrawn from each 80 µl reaction, transferred to optically clear PCR tubes (Diamed, Canada) and ANS fluorescence was measured following an additional 3-min incubation at 30 °C using a Qiagen Rotor-gene Q 6-plex with excitation and emission filters of 365 ± 20 nm and 460 ± 20 nm, respectively. An identical reaction series whereby protein was omitted from the mixtures was measured under identical conditions and trace fluorescence was subtracted from each MLP/PR10 protein-containing sample. […]

MLP15 [3] = molecular target: T2, MLP15 (Papaver somniferum, UniProt P19825); test: ANS fluorescence binding curve (direct ANS-protein affinity); parameters: made in house; host or cells: E. coli ArcticExpress (DE3); settings: Kd (ANS-protein, apparent), ANS 10 µM fixed, protein 0 to 100 µM; CBS pH 5.5; one-site hyperbolic model
T2 sequence (P19825 1-159): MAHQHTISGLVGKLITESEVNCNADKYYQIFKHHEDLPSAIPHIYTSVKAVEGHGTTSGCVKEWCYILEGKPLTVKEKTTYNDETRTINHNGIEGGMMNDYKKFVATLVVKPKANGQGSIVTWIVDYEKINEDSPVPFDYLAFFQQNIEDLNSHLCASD
Experimental: as §1

PR10-4 = settings: read-out: Kd (ANS-protein, apparent); ANS 10 µM fixed, protein 0 to 100 µM; CBS pH 5.5; one-site hyperbolic model
Experimental: as §2

PR10-10 = molecular target: T3, PR10-10 (Papaver somniferum, UniProt A0A9Y2YA81); test: ANS fluorescence binding curve (direct ANS-protein affinity); settings: weak signal, Kd not determined
T3 sequence (A0A9Y2YA81 1-158): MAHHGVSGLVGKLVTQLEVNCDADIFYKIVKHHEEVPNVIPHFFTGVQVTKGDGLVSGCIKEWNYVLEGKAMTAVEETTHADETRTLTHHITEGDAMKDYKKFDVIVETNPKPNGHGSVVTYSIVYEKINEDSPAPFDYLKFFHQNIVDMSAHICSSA
Experimental: as §1

THS2 = THS2 (Papaver somniferum, UniProt A0A2U9GGW3); test: as above; parameters: made in house; host or cells: E. coli ArcticExpress (DE3); settings: Kd (ANS-protein, apparent), ANS 10 µM fixed, protein 0 to 100 µM; CBS pH 5.5; one-site hyperbolic model
THS2, sequence (A0A2U9GGW3 whole entry): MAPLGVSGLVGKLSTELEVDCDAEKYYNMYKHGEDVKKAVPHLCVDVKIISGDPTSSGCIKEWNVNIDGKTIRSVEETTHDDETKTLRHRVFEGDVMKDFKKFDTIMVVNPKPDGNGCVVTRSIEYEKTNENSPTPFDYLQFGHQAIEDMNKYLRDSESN
Experimental: as §1

MLP15 [4] = molecular target: T2, MLP15; test: Isothermal titration calorimetry; format: binding; parameters: made in house; host or cells: E. coli ArcticExpress (DE3); settings: ITC, CBS pH 5.5, 25 °C
Experimental: ITC experiments were conducted using a Microcal VP instrument (Malvern Pananalytical, Malvern, UK). […] Dialysis was carried out in boiled Spectra/Por 1 6–8 kDa MWCO 0.32 ml/cm (Spectrum Labs, USA) tubing thoroughly washed with either buffer before use. The second 1000-fold volume of dialysis buffer was filtered and degassed using a reusable bottle-top filtration apparatus (Nalgene, USA) with disposable […] cellulose filters (VWR, Canada) prior to storage at 4 °C. Ligands were dissolved in the filtered dialysis buffer at 21 °C for approximately one hour, and any insoluble material was removed by repeated centrifugation at 21,000 × g for 10 min. […] Prior to ITC, which was initiated immediately following dialysis, the protein solutions were centrifuged at 17,000 × g and 4 °C for 30 min. Any precipitate was separated from the remaining soluble protein fraction which was quantified by absorption at A280nm and diluted with filtered dialysis buffer immediately before use.
Thermograms were recorded at 25 °C, with a reference power of 10 (dpu/sec) and monitoring of 30 injections of 9 µl BIA ligand solutions into a sample cell containing 1.4 ml of an MLP/PR10 protein solution, with 300 seconds between injections. […] To ensure that we report only the heat of reaction for each interaction, independent titrations of ligand into buffer, and buffer into protein solutions, were used to calculate and then subtract heats of dilution. After subtraction, binding isotherms were analyzed in MicroCal Origin 7 (MicroCal, USA) by fitting a single-site binding model using non-linear least squares regression analysis repeated until convergence. […] Each ITC experiment was repeated 2 to 4 times.

MLP2 = settings: read-out: Kd (ANS-protein, apparent); ANS 10 µM fixed, protein 0 to 100 µM; CBS pH 5.5; one-site hyperbolic model
Experimental: as §2

COc1ccc2c3c1O[C@H]1C(=O)C=C[C@H]4[C@@H](C2)N(C)CC[C@]314 [codeinone]
Km (NISO [1]): 48 µM

COC1=C[C@]23CCN(C)[C@H](Cc4ccc(OC)c(O)c42)C3=C[C@@H]1OC(C)=O [salutaridinol-7-O-acetate]
KA (substrate kinetics) (THS): 22 µM

O=S(=O)(O)c1cccc2cccc(Nc3ccccc3)c12 [ANS, 8-anilinonaphthalene-1-sulfonic acid]
Kd (NISO [2]): 61 µM and 60.5 µM
Kd (PR10-12): 356 ± 139 µM
Kd (MLP15 [3]): 78 µM and 78.4 µM
Kd (PR10-4): 107 ± 15.3 µM
ANS binding to PR10-10 (in words) (PR10-10): did not bind ANS in a typical manner
Kd (THS2): 21 µM and 20.9 µM
ΔH (MLP15 [4]): -14.69 ± 0.4972 kcal/mol
ΔS (MLP15 [4]): -29.8 cal/mol/˚K
Kd (MLP15 [4]; single-site model): 55.3 ± 2.8 µM
N (MLP15 [4]; single-site model): 1.06 ± 0.0244
Kd (MLP2): 28.6 ± 3.9 µM
